Experimental data published in patent publication US8445006B2, “Biomolecular coating for implants” (Georgia Tech Research Corporation, priority 2006, dated 2013).

How the values were obtained:
α5β1 integrin = experiment: Integrin binding by cross-linking/extraction/reversal technique; type: cell-based, rat; conditions: equimolar tethered brushes; vs RGD-tethered brushes and serum-exposed titanium
Description: (§1) In vitro evaluation of these engineered titanium surfaces was performed using primary rat bone marrow stromal cells since this heterogeneous population contains osteoprogenitors, and human bone marrow stromal cells are currently used in clinical applications. Cell adhesion was examined using a centrifugation assay that applies a controlled detachment force. To allow direct comparisons between ligand-tethered surfaces, an equimolar ligand density of 0.9 pmol/cm^2 was used; this value represents the highest ligand density that could be ascribed for both surfaces to be equimolar. […] As a complementary test of integrin specificity, integrin binding was quantified using a biochemical cross-linking/extraction/reversal technique.

osteoblastic cells = experiment: In vitro bioresistance and adhesive capacity of poly(OEGMA) brushes on titanium; type: cell-based; conditions: serum-containing media, osteoblastic cells 1 h
Description: Surfaces were incubated in serum-containing media for various times and subsequently challenged with osteoblastic cells for 1 h.

FAK = FAK phosphorylation Western blotting on ligand-tethered SAMs; type: cell-based, murine
Description: Cells were detached and gently agitated in serum-free suspension for 45 min to reduce background. Cells were then seeded at 200 cells/mm^2 serum-free for 1 h. Cells were lysed in RIPA buffer (1% Triton X-100, 1% sodium deoxycholate, 0.1% SDS, 150 mM NaCl, 150 mM Tris-HCl (pH 7.2), 350 μg/ml PMSF, 10 μg/ml leupeptin, and 10 μg/ml aprotonin) for 20 min on ice. Samples were pipetted up and down 20 times and centrifuged at 8000 g for 10 min to shear DNA and isolate protein contents. Total protein was quantified using micro-BCA (Pierce). Equal amounts of protein were boiled for 10 min in Laemmli buffer and separated by SDS-PAGE on a 7% gel, transferred to nitrocellulose membranes, and blocked with Blotto (5% nonfat dry milk, 0.20% Tween-20) overnight at 4° C. Membranes were gently rocked in antibodies against FAK and specific phosphorylated FAK tyrosine residues (anti-total FAK at 1 μg/ml, anti-FAK pY397 at 0.35 μg/ml, anti-FAK pY576 at 0.5 μg/ml) for 1 h. After washing with TBS-Tween (20 mM Tris HCl pH 7.6, 137 mM NaCl, 0.1% Tween-20), secondary antibody (biotin-conjugated anti-rabbit IgG; 1:20,000) was added for 1 h, followed by alkaline phosphatase-conjugated anti-biotin antibody (1:10,000) in Blotto. Immunoreactivity was assessed by ECF fluorescent substrate. FAK bands were visualized by a Fuji Image Analyzer and phosphorylation levels normalized to total FAK.

[1] = tested on: bone marrow stromal cells; experiment: Centrifugation cell adhesion assay on titanium surfaces; type: cell-based, rat; conditions: for stromal cell adhesion (adherent cell fraction): 1 h serum-free, centrifugation 12 g, no antibody, adsorbed on Ti at 20 μg/ml
Description: (§2) Primary bone marrow stromal cells were harvested from the femora of young adult male Wistar rats in accordance with an IACUC-approved protocol. After excision, hindleg femora and tibiae were cleared of soft tissue and rinsed in growth medium (α-minimal essential medium supplemented with 10% fetal bovine serum, 1% penicillin-streptomycin, and 0.3 μg/ml amphotericin B). The ends of the long bones were then removed and the marrow space was flushed with culture medium (3-5 ml), using a syringe with an 18-gauge needle. Marrow isolates were pooled, centrifuged, resuspended in growth medium, and seeded for adhesion-dependent selection on tissue culture polystyrene dishes. Non-adherent hematopoietic cells were removed during subsequent medium exchanges, which occurred every other day. Cells were subcultured every two days according to standard techniques. For in vitro osteogenic assays, cells were seeded at 10,000 cells/cm^2 in growth medium. After 24 h, cultures were maintained in osteogenic medium consisting of growth medium supplemented with 50 μg/ml L-ascorbic acid and 3 mM sodium β-glycerophosphate.
The peptide […](GPP)5GFOGER(GPP)5GPC (SEQ ID NO:1) [O=hydroxyproline] was prepared by the Emory University Microchemical Facility using solid phase t-Boc synthesis. Peptide was supplied in the purified form as a trifluoroacetic acid (TFA) salt and reconstituted at a stock concentration of 10 mg/ml in 0.1% TFA. For the in vitro assays, glass chamber slides (16-well Lab-Tek Chamber Slides, Nalge Nunc) or tissue culture-treated polystyrene dishes were coated with 300 Å of pure titanium using an electron beam evaporator at a chamber base pressure between 1-2×10^−6 torr with a deposition rate of 1.5 Å/second. The GFOGER peptide (SEQ ID NO:1) was diluted to 20 μg/ml in Dulbecco's phosphate-buffered saline (PBS) and incubated on the titanium surfaces for 1 h at 22° C.
Cell adhesion to functionalized and untreated titanium surfaces was measured using a centrifugation assay that applies controlled detachment forces. Titanium-coated glass chamber slide wells were reassembled using a silicone-based adhesive and coated with 20 μg/ml GFOGER peptide (SEQ ID NO:1) or 20 μg/ml GRGDSPC (SEQ ID NO:3) peptide (BACHEM). Control titanium slides were coated with 10% FBS (to model serum protein adsorption) or blocking buffer (5% non-fat dry milk in PBS to produce a non adhesive support). […] Initial fluorescence intensity was measured to quantify the number of adherent cells prior to application of centrifugal force. […] After centrifugation, media was exchanged and fluorescence intensity was read to measure remaining adherent cells. For each well, adherent cell fraction was calculated as the ratio of post-spin to pre-spin fluorescence readings. […]

[2] = tested on: bone marrow stromal cells; experiment: Calcium incorporation (matrix mineralization) assay; type: cell-based, rat; conditions: 14 days in culture; vs untreated titanium
Description: as §2
Calcium content was determined by dissolving mineralized deposits with 1 N acetic acid overnight. […] The absorbance of the resulting samples was measured at 650 nm and compared to a linear standard curve of CaCl2 in 1 N acetic acid.

αvβ3 integrin = experiment: Integrin binding by cross-linking/extraction/reversal technique; type: cell-based, rat; conditions: equimolar tethered brushes; vs FNIII7-10 support
Description: as §1

Substance | bound α5β1 integrin (α5β1 integrin) | cell adhesion on ligand-presenting poly(OEGMA) brushes (osteoblastic cells) | FAK tyrosine-861 phosphorylation (FAK; among both peptide-tethered surfaces) | FAK tyrosine-397 phosphorylation (FAK; maximum peptide densities, vs RGD-tethered surface) | FAK tyrosine-576 phosphorylation (FAK; vs RGD-functionalized support) | cell adhesion with blocking anti-α2 antibody ([1]; 20 μg/ml anti-rat α2 antibody) | cell adhesion with function-perturbing anti-αv antibody ([1]; 20 μg/ml anti-rat αv antibody) | stromal cell adhesion (adherent cell fraction) [1] | calcium-based mineral deposition [2] | bound αvβ3 integrin (αvβ3 integrin)
FNIII7-10: monobiotinylated recombinant fibronectin fragment spanning the 7-10th type III repeats of fibronectin; α5β1 integrin ligand | significantly higher levels of bound α5β1 integrin | comparable to the unmodified titanium | phosphorylated at similar levels | increased almost threefold | significantly higher |  |  |  |  | 
GGYGGGPC(GPP)5GFOGER(GPP)5GPC [GFOGER peptide] |  |  |  |  |  | completely eliminated cell adhesion | had no effect on adhesion | greater stromal cell adhesion | three-fold enhancement | 
GRGDSPC [RGD peptide, linear RGD oligopeptide purchased from BACHEM; primarily supports αvβ3-mediated adhesion, reference compound] |  | comparable to the unmodified titanium |  |  |  |  |  | equivalent to background levels |  | higher levels of bound αvμ3
